Assay results: patent US10144745B2, “Chimeric compounds targeting proteins, compositions, methods, and uses thereof” (BioTheryX, Inc., priority 2016, dated 2018)

Columns and labels:
Daudi cells = assay: Daudi Cell Proliferation (WST-1 cell viability); assay type: cell-based; conditions: Homo sapiens, 96 h; Daudi cells (Burkitt lymphoma cell line), treated for 4 days, viability by WST-1 relative to vehicle control
Method: Daudi cells, a Burkitt lymphoma cell line, was treated for 4 days with the indicated compound (10 nM, 100 nM, 1 μM, 10 μM, and 100 μM) or vehicle (DMSO), and cell viability was determined using the WST-1 tetrazolium reagent (Roche), and results were expressed as the percentage viability relative to the vehicle control, which was set at 100%. Based on resulting data, an IC50 was calculated for each compound.
IC50 values less than or equal to 2 μM are represented by “A;” IC50 values greater than 2 μM and less than or equal to 30 μM are represented by “B;” and IC50 values greater than 30 μM are represented by “C.”

FGFR (G697C) = biological target: T1, FGFR (G697C) (Homo sapiens, UniProt P22607, G697C); assay: Kinase Inhibition Assay (kinase-tagged phage / affinity bead competition binding, qPCR); conditions: Compounds were tested at 500 nM; read-out: FGFR (G697C) (Percent Control)
T1 construct: made in house
Method: (§1) Kinase-tagged T7 phage strains were grown in parallel in 24-well blocks in an E. coli host derived from the BL21 strain. E. coli were grown to log-phase and infected with T7 phage from a frozen stock (multiplicity of infection=0.4) and incubated with shaking at 32° C. until lysis (90-150 minutes). The lysates were centrifuged (6,000×g) and filtered (0.2 μm) to remove cell debris. The remaining kinases were produced in HEK-293 cells and subsequently tagged with DNA for qPCR detection. Streptavidin-coated magnetic beads were treated with biotinylated small molecule ligands for 30 minutes at room temperature to generate affinity resins for kinase assays. The liganded beads were blocked with excess biotin and washed with blocking buffer (SeaBlock (Pierce), 1% BSA, 0.05% Tween 20, 1 mM DTT) to remove unbound ligand and to reduce non-specific phage binding.
Binding reactions were assembled by combining kinases, liganded affinity beads, and test compounds in 1× binding buffer (20% SeaBlock, 0.17×PBS, 0.05 Tween 20, 6 mM DTT). Test compounds were prepared as 40× stocks in 100% DMSO and directly diluted into the assay. All reactions were performed in polypropylene 384-well plates in a final volume of 0.02 mL. The assay plates were incubated at room temperature with shaking for 1 hour and the affinity beads were washed with wash buffer (1×PBS, 0.05% Tween 20). […]

FES = biological target: T2, FES (Homo sapiens, UniProt P07332); assay: as above; conditions: Compounds were tested at 500 nM; read-out: FES (Percent Control)
T2 construct: made in house
Method: as §1, with “Streptavidin-coated magnetic beads were treated with biotinylated small molecule ligands for 30 minutes at room temperature to generate affinity resins for kinase assays.” left out
Test compounds were prepared as 40× stocks in 100% DMSO and directly diluted into the assay. […] The kinase concentration in the eluates was measured by qPCR.

T1 sequence (P22607 23-806 G697C): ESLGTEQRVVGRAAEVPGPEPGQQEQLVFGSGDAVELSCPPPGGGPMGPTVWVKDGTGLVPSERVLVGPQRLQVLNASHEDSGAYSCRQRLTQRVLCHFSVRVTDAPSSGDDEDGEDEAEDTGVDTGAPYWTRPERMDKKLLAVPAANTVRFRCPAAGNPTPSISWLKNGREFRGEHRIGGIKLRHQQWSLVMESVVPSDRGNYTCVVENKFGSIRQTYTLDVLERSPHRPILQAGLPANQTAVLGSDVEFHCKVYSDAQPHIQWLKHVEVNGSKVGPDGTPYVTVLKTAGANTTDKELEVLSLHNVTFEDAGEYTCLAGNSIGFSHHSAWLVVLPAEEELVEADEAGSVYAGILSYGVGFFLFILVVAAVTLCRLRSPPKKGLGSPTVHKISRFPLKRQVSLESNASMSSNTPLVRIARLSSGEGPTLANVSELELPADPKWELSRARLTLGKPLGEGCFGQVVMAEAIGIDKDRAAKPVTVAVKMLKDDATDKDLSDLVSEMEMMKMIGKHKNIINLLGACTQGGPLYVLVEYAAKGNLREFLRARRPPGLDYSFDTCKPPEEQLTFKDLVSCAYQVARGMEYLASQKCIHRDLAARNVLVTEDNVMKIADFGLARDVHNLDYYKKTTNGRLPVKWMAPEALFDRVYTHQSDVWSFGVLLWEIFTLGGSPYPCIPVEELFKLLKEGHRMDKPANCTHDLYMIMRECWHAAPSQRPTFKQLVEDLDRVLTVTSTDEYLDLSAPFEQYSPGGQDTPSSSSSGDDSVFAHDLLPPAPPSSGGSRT
T2 sequence (P07332 whole entry, species assumed): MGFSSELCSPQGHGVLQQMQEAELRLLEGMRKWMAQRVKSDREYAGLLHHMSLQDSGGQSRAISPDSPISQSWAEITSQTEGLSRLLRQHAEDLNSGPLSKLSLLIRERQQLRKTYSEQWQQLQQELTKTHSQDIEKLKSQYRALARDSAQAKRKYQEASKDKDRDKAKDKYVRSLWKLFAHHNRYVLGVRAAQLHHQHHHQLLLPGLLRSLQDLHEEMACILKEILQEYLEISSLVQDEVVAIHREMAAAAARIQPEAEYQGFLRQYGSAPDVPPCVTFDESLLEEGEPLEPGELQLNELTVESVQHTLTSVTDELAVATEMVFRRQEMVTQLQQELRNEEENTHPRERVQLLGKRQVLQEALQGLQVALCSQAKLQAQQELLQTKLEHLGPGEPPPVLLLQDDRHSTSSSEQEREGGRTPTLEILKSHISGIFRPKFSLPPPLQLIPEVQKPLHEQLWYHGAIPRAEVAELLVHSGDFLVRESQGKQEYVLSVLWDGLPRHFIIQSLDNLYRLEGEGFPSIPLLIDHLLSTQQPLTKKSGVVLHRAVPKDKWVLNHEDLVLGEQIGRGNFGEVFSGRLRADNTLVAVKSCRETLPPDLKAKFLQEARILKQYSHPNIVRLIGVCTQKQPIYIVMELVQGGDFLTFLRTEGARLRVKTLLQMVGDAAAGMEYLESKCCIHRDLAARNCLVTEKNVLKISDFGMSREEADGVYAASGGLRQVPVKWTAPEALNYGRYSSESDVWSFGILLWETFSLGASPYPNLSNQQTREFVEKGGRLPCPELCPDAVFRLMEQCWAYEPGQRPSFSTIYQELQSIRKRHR

Structure (SMILES)	IC50 (Daudi cells)	remaining binding at 0.5 µM (FGFR (G697C))	remaining binding at 0.5 µM (FES)
C=C(C)c1cccc2c1CN([C@H]1CCCC(=O)NC1=O)C2=O [Compound 43, (S)-3-(1-Oxo-4-(prop-1-en-2-yl)isoindolin-2-yl)azepane-2,7-dione]	≤ 2 µM		
Cc1cnc(Nc2ccc(OCCCNCC(=O)Nc3cccc4c3CN([C@H]3CCCC(=O)NC3=O)C4=O)cc2)nc1Nc1cccc(S(=O)(=O)NC(C)(C)C)c1 [Compound 66, (S)-2-((3-(4-((4-((3-(N-(tert-Butyl)sulfamoyl)phenyl)amino)-5-methylpyrimidin-2-yl)amino)phenoxy)propyl)amino)-N-(2-(2,7-dioxoazepan-3-yl)-1-oxoisoindolin-4-yl)acetamide]		4.8%	15%
Cc1cnc(Nc2ccc(OCCN3CCCC3)cc2)nc1Nc1cccc(S(=O)(=O)NC(C)(C)C)c1 [Fedratinib, reference compound]		57%	
Nc1cccc2c1CN(C1CCC(=O)NC1=O)C2=O (stereo not shown) [Lenalidomide, reference compound]	> 30 µM		

The next lines start with the values.

IC50 (Daudi cells)	remaining binding at 0.5 µM (FGFR (G697C))	remaining binding at 0.5 µM (FES)	Structure (SMILES)
2 to 30 µM			O=C1CCC[C@H](N2Cc3c(cccc3C(F)F)C2=O)C(=O)N1 [Compound 42, (S)-3-(4-(Difluoromethyl)-1-oxoisoindolin-2-yl)azepane-2,7-dione]
> 30 µM			CC(C)c1cccc2c1CN([C@H]1CCCC(=O)NC1=O)C2=O [Compound 45, (S)-3-(4-Isopropyl-1-oxoisoindolin-2-yl)azepane-2,7-dione]
